Reference: BindingDB's records for doi:10.1021/acs.jmedchem.9b01709 (The Institute of Cancer Research, 2019)

Molecular target: Heat shock 70 kDa protein 1A (HSP72/HSPA1A) (Homo sapiens) (UniProt P0DMV8)
Experiment: Covalent inhibition of HSP72-NBD (unknown origin) nucleotide-derived FP probe displacement based by fluorescence polarization assay

Sequence of Heat shock 70 kDa protein 1A (HSP72/HSPA1A) (Homo sapiens) (P0DMV8 whole entry, looked up): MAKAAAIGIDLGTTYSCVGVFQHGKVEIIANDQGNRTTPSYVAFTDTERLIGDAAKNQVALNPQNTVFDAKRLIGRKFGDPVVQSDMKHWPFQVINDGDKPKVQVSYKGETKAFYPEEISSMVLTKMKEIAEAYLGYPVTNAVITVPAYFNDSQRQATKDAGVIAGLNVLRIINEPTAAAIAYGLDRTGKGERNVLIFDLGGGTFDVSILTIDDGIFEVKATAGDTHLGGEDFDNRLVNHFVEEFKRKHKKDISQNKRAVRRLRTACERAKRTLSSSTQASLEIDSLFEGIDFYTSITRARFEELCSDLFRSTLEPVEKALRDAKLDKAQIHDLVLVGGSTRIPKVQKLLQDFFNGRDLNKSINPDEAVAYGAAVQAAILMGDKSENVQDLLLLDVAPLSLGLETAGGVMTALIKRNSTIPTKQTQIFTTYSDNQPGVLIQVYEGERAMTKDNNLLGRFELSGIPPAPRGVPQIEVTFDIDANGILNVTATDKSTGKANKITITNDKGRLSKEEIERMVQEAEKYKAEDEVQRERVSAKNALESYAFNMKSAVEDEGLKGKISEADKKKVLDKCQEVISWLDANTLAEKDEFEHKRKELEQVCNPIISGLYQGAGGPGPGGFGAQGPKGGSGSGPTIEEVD

Ki: < 200 nM
Compound: N#Cc1ccc(COC[C@H]2O[C@@H](n3c(NCc4ccc(Cl)c(Cl)c4)nc4c(N)ncnc43)[C@H](O)[C@@H]2O)cc1 [adenosine-derived inhibitor (Grp78), 13]
